From BindingDB's records for doi:10.1046/j.1471-4159.2000.751294.x (University of California, 2000)

Assay: Displacement of [3H]IMI from nicotinic acetylcholine receptor in Aphis craccivora (cowpea aphid) whole body membrane after 90 min by filter binding assay

Compound	IC50 [nM]
C/N=C(\NCc1ccc(Cl)nc1)N[N+](=O)[O-]	4.4
O=[N+]([O-])/N=C1\NCOCN1Cc1ccc(Cl)nc1	15
O=[N+]([O-])/N=C1\NCOCN1Cc1cnc(Cl)s1 [DESMETHYLTHIAMETHOXAM]	11
O=[N+]([O-])/N=C1\NCCN1Cc1cnc(Cl)s1 [IMIDACLOTHIZ]	8.2
